From patent US20240123039A1, “DETOXIFICATION PREPARATIONS WITH REINFORCED BOOSTERS TO TREAT ALCOHOL INTOXICATION” (priority 2022, published 2024)

How the values were obtained:
[1] = cited from earlier work; for safety of human consumption: by mouth up to 1000 mg per dose per day; for side effects of oral intake: orally, up to or more than 1000 mg per day over many years
[2] = biological target: T1, alcohol dehydrogenase (ADH) (Saccharomyces cerevisiae, UniProt P00330); assay: Effect of NADP concentration on alcohol dehydrogenase activity, OD340 read every minute; format: biochemical; details: for OD of samples after subtracting OD at time zero vs. Time / OD of samples vs. Time: ADH 84 U/mL, 2.5% ethanol; for OD of samples vs. Time: OD340
T1 construct: purchased Sigma
T1 sequence (P00330 1-348): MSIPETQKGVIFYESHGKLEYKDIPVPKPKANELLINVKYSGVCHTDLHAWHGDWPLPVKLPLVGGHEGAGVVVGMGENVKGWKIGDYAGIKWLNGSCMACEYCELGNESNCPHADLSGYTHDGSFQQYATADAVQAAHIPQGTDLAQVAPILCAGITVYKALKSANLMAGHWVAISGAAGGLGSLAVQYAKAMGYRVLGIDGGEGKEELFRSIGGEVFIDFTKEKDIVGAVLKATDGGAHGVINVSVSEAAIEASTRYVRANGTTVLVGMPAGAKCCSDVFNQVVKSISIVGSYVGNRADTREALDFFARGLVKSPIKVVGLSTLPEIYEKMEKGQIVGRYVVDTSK
Protocol: 100% ethanol (EtOH) was purchased from VWR. Buffer used was Triz Base at 0.2 M, pH 8.2.
The concentration of ethanol is 2.5% (v/v). And 0.28 mg/mL ADH, equivalent to 84 U/mL.
Multiple samples were prepared as per Table 1. The assay was performed as follows: • 1. […] Place a quartz cuvette into the spectrophotometer. • 3. At time minus 10 seconds, add 0.1 mL enzyme (2 mg/mL ADH or buffer blank) to the cuvette. • 4. Mix by pipetting. Read OD340 at time zero. • 5. Read OD340 every minute for 5 minutes. 6. Repeat for remaining samples.

NC(=O)c1ccc[n+]([C@@H]2O[C@H](COP(=O)([O-])O)[C@@H](O)[C@H]2O)c1 [NMN, Nicotinamide Mononucleotide]
safety of human consumption [1]: no ill effects | side effects of oral intake [1]: without any detectable undesirable side effects

NC(=O)c1ccc[n+]([C@@H]2O[C@H](CO)[C@@H](O)[C@H]2O)c1 [NR, Nicotinamide Riboside]
safety of human consumption [1]: no ill effects | side effects of oral intake [1]: without any detectable undesirable side effects

Nicotinamide Adenine Dinucleotide Phosphate [NADP]
OD of samples after subtracting OD at time zero vs. Time ([2]; 0 min, NADP 8.5 mM final): 0 | OD of samples vs. Time ([2]; 0 min, NADP 8.5 mM final): 0.003 | OD of samples after subtracting OD at time zero vs. Time ([2]; 0 min, NADP 28 mM final): 0 | OD of samples vs. Time ([2]; 0 min, NADP 28 mM final, listed as NADP 3x): 0.749 | OD of samples vs. Time ([2]; 0 min, NADP 28 mM final, listed as NADP 3×): around 0.8 | velocity of ethanol removal by ADH in the higher NADP mixture compared to the lower NADP mixture ([2]; 28 mM vs 8.4 mM NADP, same conc of ADH): about 2 × | OD of samples after subtracting OD at time zero vs. Time ([2]; 1 min, NADP 8.5 mM final): 0.059 | OD of samples vs. Time ([2]; 1 min, NADP 8.5 mM final): 0.062 | OD of samples vs. Time ([2]; 1 min, NADP 28 mM final): 0.860 | OD of samples after subtracting OD at time zero vs. Time ([2]; 2 min, NADP 8.5 mM final): 0.087 | OD of samples vs. Time ([2]; 2 min, NADP 8.5 mM final): 0.090 | OD of samples after subtracting OD at time zero vs. Time ([2]; 2 min, NADP 28 mM final): 0.169 | OD of samples vs. Time ([2]; 2 min, NADP 28 mM final): 0.918 | OD of samples after subtracting OD at time zero vs. Time ([2]; 3 min, NADP 8.5 mM final): 0.098 | OD of samples vs. Time ([2]; 3 min, NADP 28 mM final): 0.948 | OD of samples after subtracting OD at time zero vs. Time ([2]; 4 min, NADP 8.5 mM final): 0.102 | OD of samples vs. Time ([2]; 4 min, NADP 28 mM final): 0.963 | OD of samples after subtracting OD at time zero vs. Time ([2]; 5 min, NADP 28 mM final): 0.223 | OD of samples vs. Time ([2]; 5 min, NADP 28 mM final): 0.972 | OD at higher NADP concentration compared with the lower NADP concentration ([2]; starting at 1 minute, higher vs lower NADP concentration): higher ODs at every time point
